Laboratory results reported in ChEMBL document CHEMBL4418305, “Alkyl-, acyl-, urea-, and aza-uracil sulfide:quinone oxidoreductase inhibitors” (2017).

How the values were obtained:
[1] = target: T1, Sulfide:quinone oxidoreductase, mitochondrial (Homo sapiens, UniProt Q9Y6N5); assay: Inhibition of SQOR (unknown origin) at 10 uM using sodium sulfide, sodium sulfite and coenzyme Q1 by UV absorbance method relative to control
Target sequence in this assay (Q9Y6N5 whole entry, looked up): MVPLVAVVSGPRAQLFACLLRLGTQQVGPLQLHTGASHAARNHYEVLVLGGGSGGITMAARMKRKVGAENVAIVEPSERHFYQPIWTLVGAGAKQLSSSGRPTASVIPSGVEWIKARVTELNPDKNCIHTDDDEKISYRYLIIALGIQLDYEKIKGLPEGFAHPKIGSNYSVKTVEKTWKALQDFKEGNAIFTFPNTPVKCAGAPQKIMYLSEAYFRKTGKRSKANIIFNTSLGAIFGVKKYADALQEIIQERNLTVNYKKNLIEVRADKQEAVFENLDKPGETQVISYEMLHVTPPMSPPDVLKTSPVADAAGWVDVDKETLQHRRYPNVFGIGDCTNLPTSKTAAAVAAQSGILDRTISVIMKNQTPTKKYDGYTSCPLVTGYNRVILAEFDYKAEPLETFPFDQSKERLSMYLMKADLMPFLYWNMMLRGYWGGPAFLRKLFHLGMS

[2] = target: T1, Sulfide:quinone oxidoreductase, mitochondrial; assay: Inhibition of SQOR (unknown origin) using sodium sulfide, sodium sulfite and coenzyme Q1 by UV absorbance method
Target sequence in this assay (Q9Y6N5 whole entry): as the sequence (Q9Y6N5 whole entry, looked up) above

| inhibition [1] [%] | IC50 [2] [µM] | pIC50 [2] | Molecule |
| --- | --- | --- | --- |
| 10 to 50 |  |  | CCCCCCCC(=O)n1cc(Cl)c(=O)[nH]c1=O |
| 10 to 50 | 20 to 100 |  | CCCCCCCC(=O)n1cc(Br)c(=O)[nH]c1=O |
| 10 to 50 | < 20 |  | CCCCCCCC(=O)n1c(I)cc(=O)[nH]c1=O |
| > 50 | < 20 |  | CCCCCCCC(=O)n1nc(Br)c(=O)[nH]c1=O |
| > 50 | 100 to 500 |  | CCCCCCCCCC(=O)n1nc(Br)c(=O)[nH]c1=O |
| 10 to 50 |  |  | O=c1c(F)cn(CCC2CCCCC2)c(=O)n1CCC1CCCCC1 |
| > 50 | < 20 |  | O=C(C1CCCCC1)n1nc(Br)c(=O)[nH]c1=O |
| > 50 | < 20 |  | CCCCCCCn1cc(F)c(=O)n(CCCCCCC)c1=O |
| > 50 | < 20 |  | O=C(CC1CCCCC1)n1nc(Br)c(=O)[nH]c1=O |
| 10 to 50 | < 20 |  | CCCCCCCC(=O)n1c(C)c(Br)c(=O)[nH]c1=O |
| 10 to 50 |  |  | CC(C)C(=O)n1nc(Br)c(=O)[nH]c1=O |
| > 50 | < 20 |  | CCCCCCn1cc(F)c(=O)n(CCCCCC)c1=O |
| 10 to 50 | < 20 |  | CCCCCCCC(=O)n1c(Cl)cc(=O)[nH]c1=O |
| 10 to 50 | < 20 |  | CCCCCCCCn1c(C)c(F)c(=O)n(CCCCCCCC)c1=O |
| 10 to 50 | < 20 |  | CCCCCC(=O)n1nc(Br)c(=O)[nH]c1=O |
| > 50 | < 20 |  | CCCCCCCCNC(=O)n1cc(Cl)c(=O)[nH]c1=O |
| 10 to 50 |  |  | O=C(c1ccccc1)n1nc(Br)c(=O)[nH]c1=O |
| > 50 | < 20 |  | CCCCCn1cc(F)c(=O)n(CCCCC)c1=O |

| inhibition [1] [%] | IC50 [2] [µM] | pIC50 [2] | Molecule |
| --- | --- | --- | --- |
| 10 to 50 | < 20 |  | CCCCCCCCNC(=O)n1cc(F)c(=O)[nH]c1=O |
| 10 to 50 |  |  | O=C(NCc1ccccc1)n1cc(F)c(=O)[nH]c1=O |
| > 50 |  |  | CCCCCCCCCCCCCC(=O)n1nc(Br)c(=O)[nH]c1=O |
| 10 to 50 |  |  | CC(C)CCCn1cc(F)c(=O)n(CCCC(C)C)c1=O |
| 10 to 50 |  |  | CCCCCCC(=O)n1cc(F)c(=O)n(C)c1=O |
| > 50 | < 20 |  | CCCCCn1c(C)c(F)c(=O)n(CCCCC)c1=O |
| 3 |  |  | CCCCCCCC(=O)n1cc(F)c(=O)[nH]c1=O |
| > 50 | < 20 |  | O=C(CCC1CCCC1)n1nc(Br)c(=O)[nH]c1=O |
| 6 |  |  | CCCNC(=O)n1cc(F)c(=O)[nH]c1=O |
| 7 |  |  | O=C(NCCc1ccccc1)n1cc(F)c(=O)[nH]c1=O |
| 10 to 50 | < 20 |  | CCCCCCCCn1cc(F)c(=O)n(CCCCCCCC)c1=O |
| > 50 |  |  | CCCCCCCCCCCC(=O)n1nc(Br)c(=O)[nH]c1=O |
| 10 to 50 |  |  | O=c1c(F)cn(CCc2ccccc2)c(=O)n1CCc1ccccc1 |
| 10 to 50 |  |  | CCCCCn1c(Cl)cc(=O)n(CCCCC)c1=O |
| 10 to 50 | 20 to 100 |  | CCCCCCCC(=O)n1nc(C)c(=O)[nH]c1=O |
|  | 0.925 to 0.93 | 6.034 | AUROTHIOGLUCOSE [listing 1 of 2 here] |
| 95 to 100 |  |  | AUROTHIOGLUCOSE [listing 2 of 2 here] |

| Molecule | inhibition [1] [%] | IC50 [2] [µM] | pIC50 [2] |
| --- | --- | --- | --- |
| CCCCCCNC(=O)n1cc(F)c(=O)[nH]c1=O [CARMOFUR] | 10 to 50 | 20 to 100 |  |
